# Experimental data as given in patent US20220324803A1 (Teon Therapeutics, Inc., priority 2019, published 2022).
# Target: T1, human Prostanoid EP4 Receptor (EP4) (Homo sapiens, UniProt P35408)
# T1 construct: expressed in transfected cells; host or cells: HEK293 (G418 selection); membranes prepared by differential centrifugation
# Test: Prostanoid EP4 binding assay (3H-prostaglandin E2 displacement, cell membranes)
# Conditions: HEK293 cell membranes with human EP4, 3H-prostaglandin E2, 24° C.
# Protocol: HEK293 cells transfected with human Prostanoid EP4 Receptor (EP4) are maintained in DMEM supplemented with L-Glutamine, 10% FBS and 300 μg/ml G418. Cells are harvested and membranes prepared by differential centrifugation, following lysis of the cells in the presence of protease inhibitors, for use in the receptor binding assay. EP4 binding assay is performed in 50 mM HEPES pH7.4, 5 mM MgCl2, 1 mM CaCl2) and 0.2% BSA. Testing compounds are diluted with DMSO to make 8-point 4-fold serial dilution. Cell membrane homogenates are incubated at 24° C. with ^3H-prostaglandin E2 in the absence or presence of the testing compound in assay buffer. Nonspecific binding (Low control: LC) and total binding (High control: HC) are determined in the presence or absence of saturated cold ligand Prostaglandin E2 (PGE2). Specific binding is calculated by subtracting nonspecific binding from total binding. When binding assays are completed, the reaction mixture is filtered rapidly under vacuum through glass fiber filters (GF/C, Packard) presoaked with 0.5% BSA for at least 0.5 hour at room temperature and then washed for 4 times with cold wash buffer (50 mM HEPES pH7.4, 500 mM NaCl, 0.1% BSA) using a 96-sample Perkin Elmer Filtermate Harvester (Unifilter, Packard). The filters are dried for 1 hour at 50 degrees then counted for radioactivity in a scintillation counter using Perkin Elmer Microscint 20 cocktail. ^3H trapped on filter is counted using Perkin Elmer MicroBeta2 Reader. Inhibition is calculated using following equation: % Inhibition=(1−(Assay well−Average_LC)/(Average_HC−Average_LC))×100%. The results are expressed as a percent inhibition of the control radioligand specific binding. Data are analyzed and IC50 is calculated using GraphPad Prism 5 and the model “log(inhibitor) vs. response—Variable slope”. The binding affinity of the compounds is determined by using the Cheng and Prusoff equation Ki=IC50/(1+[radioligand]/Kd).
# T1 sequence (P35408 whole entry): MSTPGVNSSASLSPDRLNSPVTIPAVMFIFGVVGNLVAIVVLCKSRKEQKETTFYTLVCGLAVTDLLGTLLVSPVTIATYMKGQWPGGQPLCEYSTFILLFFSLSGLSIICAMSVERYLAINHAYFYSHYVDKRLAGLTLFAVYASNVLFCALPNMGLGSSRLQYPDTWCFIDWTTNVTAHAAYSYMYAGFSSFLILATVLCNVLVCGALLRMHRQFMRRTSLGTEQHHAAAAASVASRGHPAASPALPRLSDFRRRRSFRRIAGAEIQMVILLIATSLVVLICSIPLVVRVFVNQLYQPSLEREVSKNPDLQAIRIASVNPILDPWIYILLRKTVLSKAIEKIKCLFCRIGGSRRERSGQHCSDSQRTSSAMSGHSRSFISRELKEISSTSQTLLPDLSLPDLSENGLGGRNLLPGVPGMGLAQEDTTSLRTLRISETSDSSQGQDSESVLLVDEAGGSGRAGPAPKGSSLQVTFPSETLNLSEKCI
row,Ki,Structure (SMILES)
1,0.1 to 0.499 µM,"CC(C)Cn1nc2cccc(Cc3ccc(C(F)(F)F)cc3)c2c1C(=O)N[C@@H](C)c1ccc(C(=O)O)cc1 [Compound 30, 4-[(1S)-1-[[2-isobutyl-4-[[4-(trifluoromethyl)phenyl]methyl]indazole-3-carbonyl]amino]ethyl]benzoic acid]"
2,< 0.1 µM,"CC(C)Cn1nc(C(=O)NC23CC(CC(=O)O)(C2)C3)c2c(Cc3ccc(C(F)(F)F)cc3)cccc21 [Compound 25, 2-[3-[[1-isobutyl-4-[[4-(trifluoromethyl)phenyl]methyl]indazole-3-carbonyl]amino]-1-bicyclo[1.1.1]pentanyl]acetic acid]"
3,< 0.1 µM,"CCn1cc(C(=O)NC23CC(CC(=O)O)(C2)C3)c2c(Cc3ccc(C(F)(F)F)cc3)cccc21 [Compound 51, 2-[3-[[1-ethyl-4-[[4-(trifluoromethyl)phenyl]methyl]indole-3-carbonyl]amino]-1-bicyclo[1.1.1]pentanyl]acetic acid]"
4,< 0.1 µM,"CCn1cc(C(=O)NC[C@H]2CC[C@H](C(=O)O)CC2)c2c(Cc3ccc(C(F)(F)F)cc3)cccc21 [Compound 55, (1r,4r)-4-[[[1-ethyl-4-[[4-(trifluoromethyl)phenyl]methyl]indole-3-carbonyl]amino]methyl]cyclohexanecarboxylic acid]"
5,< 0.1 µM,"O=C(N[C@H]1CC2(C1)C[C@H](C(=O)O)C2)c1cn(CCF)c2cccc(Cc3ccc(C(F)(F)F)cc3)c12 (stereo partly drawn) [Compound 44, trans-2-[[1-(2-fluoroethyl)-4-[[4-(trifluoromethyl)phenyl]methyl]-indole-3-carbonyl]amino]spiro[3.3]heptane-6-carboxylic acid]"
6,< 0.1 µM,"O=C(O)CC1CCC(NC(=O)c2cnn3cccc(Cc4ccc(C(F)(F)F)cc4)c23)CC1 (stereo not drawn) [Compound 34, 2-[4-[[4-[[4-(trifluoromethyl)phenyl]methyl]pyrazolo[1,5-a]pyridine-3-carbonyl]amino]cyclohexyl]acetic acid]"
7,< 0.1 µM,"O=C(NC[C@H]1CC[C@H](C(=O)O)CC1)c1cnn2cccc(Cc3ccc(C(F)(F)F)cc3)c12 [Compound 40, (1r,4r)-4-[[[4-[[4-(trifluoromethyl)phenyl]methyl]pyrazolo[1,5-a]pyridine-3-carbonyl]amino]methyl]cyclohexanecarboxylic acid]"
8,0.1 to 0.499 µM,"CCn1nc(C(=O)N[C@H]2CC3(C2)C[C@H](C(=O)O)C3)c2c(Cc3ccc(C(F)(F)F)cc3)cccc21 (single isomer, unassigned) [Compound 11A, cis-2-[[1-ethyl-4-[[4-(trifluoromethyl)phenyl]methyl]indazole-3-carbonyl]amino]spiro[3.3]heptane-6-carboxylic acid]"
9,< 0.1 µM,"O=C(N[C@H]1CC2(C1)C[C@H](C(=O)O)C2)c1ncn2cccc(Cc3ccc(C(F)(F)F)cc3)c12 (single isomer, unassigned) [Compound 6B, trans-2-[[8-[[4-(trifluoromethyl)phenyl]methyl]imidazo[1,5-a]pyridine-1-carbonyl]amino]spiro[3.3]heptane-6-carboxylic acid]"
10,0.1 to 0.499 µM,"CC(C(=O)O)c1ccc(NC(=O)c2cnn3cccc(Cc4ccc(C(F)(F)F)cc4)c23)cc1 (stereo not drawn) [Compound 49, 2-[4-[[4-[[4-(trifluoromethyl)phenyl]methyl]pyrazolo[1,5-a]pyridine-3-carbonyl]amino]phenyl]propanoic acid]"
11,< 0.1 µM,"CCn1cc(C(=O)N[C@@H](C)c2ccc(C(=O)O)cc2)c2c(Cc3ccc(C(F)(F)F)cc3)cccc21 [Compound 42, 4-[(1S)-1-[[1-ethyl-4-[[4-(trifluoromethyl)phenyl]methyl]indole-3-carbonyl]amino]ethyl]benzoic acid]"
12,< 0.1 µM,"CCn1cc(C(=O)N[C@@H](C)c2ccc(C(=O)O)cc2)c2c(Cc3ccc(C(F)(F)F)cc3)ccnc21 [Compound 46, 4-[(1S)-1-[[1-ethyl-4-[[4-(trifluoromethyl)phenyl]methyl]-pyrrolo[2,3-b]pyridine-3-carbonyl]amino]ethyl]benzoic acid]"
13,< 0.1 µM,"O=C(O)CC12CC(NC(=O)c3cn(CCF)c4cccc(Cc5ccc(C(F)(F)F)cc5)c34)(C1)C2 [Compound 52, 2-[3-[[1-(2-fluoroethyl)-4-[[4-(trifluoromethyl)phenyl]methyl]-indole-3-carbonyl]amino]-1-bicyclo[1.1.1.1]pentanyl]acetic acid]"
14,< 0.1 µM,CCn1cc(C(=O)NC23CC(CC(=O)O)(C2)C3)c2c(Cc3ccc(C(F)(F)F)cc3)ccnc21 [Compound 53]
15,0.1 to 0.499 µM,"O=C(N[C@H]1CC[C@H](C(=O)O)CC1)c1cnn2cccc(Cc3ccc(C(F)(F)F)cc3)c12 [Compound 33, (1r,4r)-4-[[4-[[4-(trifluoromethyl)phenyl]methyl]pyrazolo[1,5-a]pyridine-3-carbonyl]amino]cyclohexanecarboxylic acid]"
16,< 0.1 µM,"O=C(O)CC12CC(NC(=O)c3cn(CCF)c4nccc(Cc5ccc(C(F)(F)F)cc5)c34)(C1)C2 [Compound 54, 2-[3-[[1-(2-fluoroethyl)-4-[[4-(trifluoromethyl)phenyl]methyl]-pyrrolo[2,3-b]pyridine-3-carbonyl]amino]-1-bicyclo[1.1.1]pentanyl]acetic acid]"
17,< 0.1 µM,"O=C(O)CC1CCC(NC(=O)c2cnn3cccc(Cc4ccc(C(F)(F)F)cc4)c23)C1 (stereo not drawn) [Compound 37, 2-[3-[[4-[[4-(trifluoromethyl)phenyl]methyl]pyrazolo[1,5-a]pyridine-3-carbonyl]amino]cyclopentyl]acetic acid]"
18,0.1 to 0.499 µM,"O=C(NC12CCC(C(=O)O)(CC1)CC2)c1cnn2cccc(Cc3ccc(C(F)(F)F)cc3)c12 [Compound 36, 4-[[4-[[4-(trifluoromethyl)phenyl]methyl]pyrazolo[1,5-a]pyridine-3-carbonyl]amino]bicyclo[2.2.2]octane-1-carboxylic acid]"
19,< 0.1 µM,"O=C(O)c1ccc(C2(NC(=O)c3cnn4cccc(Cc5ccc(C(F)(F)F)cc5)c34)CC2)cc1 [Compound 26, 4-[1-[[4-[[4-(trifluoromethyl)phenyl]methyl]pyrazolo[1,5-a]pyridine-3-carbonyl]amino]cyclopropyl]benzoic acid]"
20,> 0.5 µM,"CC(C)n1nc(C(=O)NC23CC(CC(=O)O)(C2)C3)c2c(Cc3ccc(C(F)(F)F)cc3)cccc21 [Compound 22, 2-[3-[[1-isopropyl-4-[[4-(trifluoromethyl)phenyl]methyl]indazole-3-carbonyl]amino]-1-bicyclo[1.1.1]pentanyl]acetic acid]"
21,< 0.1 µM,"CC(C)n1nc2cccc(Cc3ccc(C(F)(F)F)cc3)c2c1C(=O)N[C@@H](C)c1ccc(C(=O)O)cc1 [Compound 29, 4-[(1S)-1-[[2-isopropyl-4-[[4-(trifluoromethyl)phenyl]methyl]indazole-3-carbonyl]amino]ethyl]benzoic acid]"
22,< 0.1 µM,"O=C(O)C[C@H]1CC[C@H](NC(=O)c2cnn3cccc(Cc4ccc(C(F)(F)F)cc4)c23)CC1 [Compound 38, 2-((1r,4r)-4-(4-(4-(trifluoromethyl)benzyl)pyrazolo[1,5-a]pyridine-3-carboxamido)cyclohexyl)acetic acid]"
23,< 0.1 µM,"CC(C)n1nc(C(=O)N[C@H]2CC3(C2)C[C@H](C(=O)O)C3)c2c(Cc3ccc(C(F)(F)F)cc3)cccc21 (stereo partly drawn) [Compound 21, trans-2-[[1-isopropyl-4-[[4-(trifluoromethyl)phenyl]methyl]indazole-3-carbonyl]amino]spiro[3.3]heptane-6-carboxylic acid]"
24,< 0.1 µM,"CC(C)Cn1nc(C(=O)N[C@@H](C)c2ccc(C(=O)O)cc2)c2c(Cc3ccc(C(F)(F)F)cc3)cccc21 [Compound 23, 4-[(1S)-1-[[1-isobutyl-4-[[4-(trifluoromethyl)phenyl]methyl]indazole-3-carbonyl]amino]ethyl]benzoic acid]"
25,< 0.1 µM,"O=C(NC1CC2(C1)CC(C(=O)O)C2)c1cn(CCF)c2nccc(Cc3ccc(C(F)(F)F)cc3)c12 (stereo not drawn) [Compound 48, trans-2-[[1-(2-fluoroethyl)-4-[[4-(trifluoromethyl)phenyl]methyl]-pyrrolo[2,3-b]pyridine-3-carbonyl]amino]spiro[3.3]heptane-6-carboxylic acid]"

row,Structure (SMILES),Ki
1,"O=C(NC1CC2(C1)CC(C(=O)O)C2)c1cnn2cccc(Cc3cc4ccccc4cn3)c12 (single isomer, unassigned) [Compound 13B, trans-2-[[4-(3-isoquinolylmethyl)pyrazolo[1,5-a]pyridine-3-carbonyl]amino]spiro[3.3]heptane-6-carboxylic acid]",< 0.1 µM
2,"O=C(NC[C@H]1CC[C@H](C(=O)O)CC1)c1cn(CCF)c2nccc(Cc3ccc(C(F)(F)F)cc3)c12 [Compound 58, (1r,4r)-4-[[[1-(2-fluoroethyl)-4-[[4-(trifluoromethyl)-phenyl]methyl]-pyrrolo[2,3-b]pyridine-3-carbonyl]amino]methyl]cyclohexanecarboxylic acid]",< 0.1 µM
